Source: ChEMBL document CHEMBL5634071, “Fluorine in anti-HIV drugs approved by FDA from 1981 to 2023” (Eur J Med Chem, 2023)

Legend:
[1] = system: Human immunodeficiency virus 1; assay: Antiviral activity against HIV-1 RF infected in human MT4 cells assessed as reduction in viral RNA production measured after 3 days by plaque assay; assay type: functional; conditions: Human immunodeficiency virus 1, RF, MT4, 72 h; time 3 day
[2] = target: T1, DNA polymerase subunit gamma-1 (Homo sapiens) (UniProt P54098); assay: Binding affinity to human DNA polymerase gamma assessed as polymerization rate
T1 sequence (whole entry): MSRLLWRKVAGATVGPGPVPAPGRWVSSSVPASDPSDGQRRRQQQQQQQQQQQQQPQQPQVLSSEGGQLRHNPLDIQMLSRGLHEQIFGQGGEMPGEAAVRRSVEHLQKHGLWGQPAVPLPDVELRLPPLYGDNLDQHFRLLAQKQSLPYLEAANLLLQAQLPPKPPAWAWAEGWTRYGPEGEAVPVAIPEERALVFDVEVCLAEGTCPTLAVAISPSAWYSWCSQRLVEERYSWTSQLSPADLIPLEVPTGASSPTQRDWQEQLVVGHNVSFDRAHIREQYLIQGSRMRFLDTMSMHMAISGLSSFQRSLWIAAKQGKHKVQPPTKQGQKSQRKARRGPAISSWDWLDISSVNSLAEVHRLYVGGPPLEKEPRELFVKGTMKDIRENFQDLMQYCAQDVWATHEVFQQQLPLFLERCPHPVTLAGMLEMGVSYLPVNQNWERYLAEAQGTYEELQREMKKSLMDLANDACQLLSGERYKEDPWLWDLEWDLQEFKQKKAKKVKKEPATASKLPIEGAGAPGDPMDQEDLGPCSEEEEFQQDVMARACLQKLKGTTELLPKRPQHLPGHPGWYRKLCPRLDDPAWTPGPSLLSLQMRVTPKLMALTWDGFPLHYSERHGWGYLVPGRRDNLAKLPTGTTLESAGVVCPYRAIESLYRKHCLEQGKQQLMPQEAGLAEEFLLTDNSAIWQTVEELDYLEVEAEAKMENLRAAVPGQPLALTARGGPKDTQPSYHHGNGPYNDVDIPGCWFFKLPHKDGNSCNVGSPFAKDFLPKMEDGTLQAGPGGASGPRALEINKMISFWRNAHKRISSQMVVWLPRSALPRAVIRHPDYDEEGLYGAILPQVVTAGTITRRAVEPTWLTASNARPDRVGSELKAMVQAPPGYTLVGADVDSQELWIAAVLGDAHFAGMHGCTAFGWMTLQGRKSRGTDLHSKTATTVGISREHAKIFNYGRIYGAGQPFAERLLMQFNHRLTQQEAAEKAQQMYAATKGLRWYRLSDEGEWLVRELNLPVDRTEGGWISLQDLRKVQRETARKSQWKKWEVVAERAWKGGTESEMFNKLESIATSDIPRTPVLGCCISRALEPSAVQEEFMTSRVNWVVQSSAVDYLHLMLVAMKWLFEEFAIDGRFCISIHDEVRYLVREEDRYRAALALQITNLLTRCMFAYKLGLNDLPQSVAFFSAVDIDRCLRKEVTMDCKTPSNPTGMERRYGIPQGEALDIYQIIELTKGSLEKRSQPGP

[3] = target: T2, DNA polymerase subunit gamma-1 (Homo sapiens, UniProt P54098); assay: Binding affinity to human DNA polymerase gamma assessed as dissociation constant
T2 sequence (P54098 whole entry): T1 sequence (whole entry)

[4] = target: T1, DNA polymerase subunit gamma-1 (Homo sapiens); assay: Ratio of K for biding affinity to human DNA polymerase gamma assessed as polymerization rate to Kd for binding affinity to human DNA polymerase gamma
[5] = target: Human immunodeficiency virus type 1 protease (Human immunodeficiency virus 1, UniProt Q72874); assay: Inhibition of HIV-1 protease
[6] = system: Human immunodeficiency virus 1; assay: Antiviral activity against HIV-1 IIIB infected in human H9 cells; assay type: functional, organism-based; conditions: Human immunodeficiency virus 1, IIIB
[7] = Half-life in human administered as single dose; assay type: ADME
[8] = system: Human immunodeficiency virus; assay: Antiviral activity agaisnt HIV BAL infected in human PM1 cells assessed as inhibition of viral replication; assay type: functional, organism-based; conditions: Human immunodeficiency virus 1, BAL
[9] = system: Human immunodeficiency virus 1; assay: Antiviral activity against NNRTI-resistant HIV-1 harboring K103N mutant assessed as inhibition of viral growth; assay type: functional
[10] = system: Human immunodeficiency virus 1; assay: Antiviral activity against NNRTI-resistant HIV-1 harboring Y181C mutant assessed as inhibition of viral growth; assay type: functional
[11] = system: Human immunodeficiency virus 1; assay: Antiviral activity against NNRTI-resistant HIV-1 harboring K103N/Y181C double mutant assessed as inhibition of viral growth; assay type: functional
[12] = system: Human immunodeficiency virus 1; assay: Antiviral activity against HIV-1 infected in PBMC (unknown origin) assessed as inhibition of viral replication by ELISA; assay type: functional, organism-based; conditions: Human immunodeficiency virus 1, PBMC
[13] = target: hERG (Homo sapiens, UniProt Q12809); assay: Inhibition of tritium labelled dofetilide binding to hERG expressed in HEK293 cells at 300 nM relative to control; assay type: toxicity, cell-based; conditions: HEK293 cells that express hERG, probe tritium labelled dofetilide
Chain of hERG (Q12809 whole entry): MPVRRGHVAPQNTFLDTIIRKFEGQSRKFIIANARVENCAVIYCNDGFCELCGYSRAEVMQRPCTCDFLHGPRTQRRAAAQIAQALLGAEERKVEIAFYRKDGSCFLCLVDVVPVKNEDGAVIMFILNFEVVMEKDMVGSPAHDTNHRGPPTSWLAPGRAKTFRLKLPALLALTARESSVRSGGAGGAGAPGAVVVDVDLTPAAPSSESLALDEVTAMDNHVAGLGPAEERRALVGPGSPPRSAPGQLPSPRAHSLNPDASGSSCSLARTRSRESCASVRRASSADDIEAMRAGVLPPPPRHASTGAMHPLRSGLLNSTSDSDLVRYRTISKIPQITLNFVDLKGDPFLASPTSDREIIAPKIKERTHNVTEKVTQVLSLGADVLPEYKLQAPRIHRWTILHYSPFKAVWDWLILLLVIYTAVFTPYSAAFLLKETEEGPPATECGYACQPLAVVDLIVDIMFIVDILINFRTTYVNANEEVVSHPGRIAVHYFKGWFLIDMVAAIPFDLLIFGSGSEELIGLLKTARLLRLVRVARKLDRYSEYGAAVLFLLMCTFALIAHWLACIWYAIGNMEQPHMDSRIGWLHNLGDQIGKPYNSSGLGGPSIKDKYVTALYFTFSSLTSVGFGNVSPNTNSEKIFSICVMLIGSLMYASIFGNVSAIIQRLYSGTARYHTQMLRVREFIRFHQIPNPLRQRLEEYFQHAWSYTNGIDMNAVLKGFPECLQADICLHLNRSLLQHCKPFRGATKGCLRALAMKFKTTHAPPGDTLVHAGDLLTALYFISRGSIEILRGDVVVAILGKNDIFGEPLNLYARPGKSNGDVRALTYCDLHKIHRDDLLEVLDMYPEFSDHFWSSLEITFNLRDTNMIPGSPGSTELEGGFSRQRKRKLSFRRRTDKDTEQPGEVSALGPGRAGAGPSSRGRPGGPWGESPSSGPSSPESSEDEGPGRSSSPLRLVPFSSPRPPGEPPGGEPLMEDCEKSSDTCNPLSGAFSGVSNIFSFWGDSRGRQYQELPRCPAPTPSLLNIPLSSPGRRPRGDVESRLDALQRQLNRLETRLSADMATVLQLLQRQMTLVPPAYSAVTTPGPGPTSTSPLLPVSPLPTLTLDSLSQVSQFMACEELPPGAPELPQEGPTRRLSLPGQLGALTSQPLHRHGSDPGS

[14] = system: Human immunodeficiency virus 1; assay: Antiviral activity against HIV-1 LAV infected in human CEM cells; assay type: functional, organism-based; conditions: Human immunodeficiency virus 1, LAV, CCRF-CEM
[15] = Cytotoxicity against human CEM cells measured after 6 days; conditions: CEM cells (CCRF-CEM)
[16] = Inhibition of wildtype HIV Reverse transcriptase; design: species or system Human immunodeficiency virus
[17] = system: Human immunodeficiency virus; assay: Antiviral activity against HIV IIIB infected in human MT4 cells; assay type: functional, organism-based; conditions: Human immunodeficiency virus 1, IIIB
[18] = Cytotoxicity against human CEM cells; assay type: toxicity, cell-based; conditions: CEM cells (CCRF-CEM)
[19] = target: C-C chemokine receptor type 5 (Homo sapiens, UniProt P51681); assay: Displacement of [125I]MIP-1alpha from CCR5 receptor (unknown origin) expressed in HEK293 cells; assay type: cell-based
Chain of C-C chemokine receptor type 5 (P51681 whole entry): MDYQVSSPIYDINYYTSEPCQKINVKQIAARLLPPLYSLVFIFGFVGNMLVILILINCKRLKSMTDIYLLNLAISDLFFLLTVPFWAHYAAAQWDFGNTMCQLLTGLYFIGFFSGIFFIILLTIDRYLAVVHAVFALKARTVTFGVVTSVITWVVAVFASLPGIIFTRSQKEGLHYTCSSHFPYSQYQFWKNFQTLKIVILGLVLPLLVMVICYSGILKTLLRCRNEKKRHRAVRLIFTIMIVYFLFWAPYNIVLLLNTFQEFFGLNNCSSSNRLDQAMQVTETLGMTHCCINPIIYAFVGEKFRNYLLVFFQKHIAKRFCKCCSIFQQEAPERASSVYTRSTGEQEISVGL

[20] = target: Cytochrome P450 2D6 (Homo sapiens, UniProt P10635); assay: Inhibition of CYP2D6 (unknown origin); assay type: ADME
Chain of Cytochrome P450 2D6 (P10635 whole entry): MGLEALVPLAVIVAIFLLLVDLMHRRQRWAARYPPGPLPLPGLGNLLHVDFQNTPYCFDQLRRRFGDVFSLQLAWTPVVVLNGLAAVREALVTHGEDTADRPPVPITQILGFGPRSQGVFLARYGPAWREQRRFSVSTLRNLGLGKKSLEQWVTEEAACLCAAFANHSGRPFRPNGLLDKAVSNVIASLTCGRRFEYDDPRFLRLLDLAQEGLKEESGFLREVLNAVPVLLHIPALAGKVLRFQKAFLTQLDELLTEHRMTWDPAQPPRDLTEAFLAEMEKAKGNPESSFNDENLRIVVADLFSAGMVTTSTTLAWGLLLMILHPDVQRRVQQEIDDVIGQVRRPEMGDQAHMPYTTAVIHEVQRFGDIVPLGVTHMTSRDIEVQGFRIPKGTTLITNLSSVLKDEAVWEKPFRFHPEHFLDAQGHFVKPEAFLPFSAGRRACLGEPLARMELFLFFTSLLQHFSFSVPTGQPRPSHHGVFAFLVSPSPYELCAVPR

[21] = system: Human immunodeficiency virus 1; assay: Antiviral activity against HIV-1 NL4-3 infected in human MT4 cells assessed as reduction in virus induced cytopathic effect by XTT assay; assay type: functional, organism-based; conditions: Human immunodeficiency virus 1, NL4-3, MT4
[22] = system: Human immunodeficiency virus 1; assay: Antiviral activity against HIV-1 infected in human PBMC; assay type: functional, organism-based; conditions: Human immunodeficiency virus 1, PBMC
[23] = target: Human immunodeficiency virus type 1 Gag protein (Human immunodeficiency virus 1, UniProt Q77YG1); assay: Binding affinity to HIV1 Gag assessed as dissociation constant
[24] = Metabolic stability in rhesus monkey hepatocytes assessed as half-life; assay type: ADME, cell-based, Macaca mulatta, Hepatocyte
[25] = Inhibition of HIV integrase; design: species or system Human immunodeficiency virus
[26] = system: Human immunodeficiency virus; assay: Antiviral activity against HIV; assay type: functional, organism-based; conditions: Human immunodeficiency virus 1

## O=C1Nc2ccc(Cl)cc2[C@@](C#CC2CC2)(C(F)(F)F)N1
[1]
  IC90: 2 nM

## Nc1ccn([C@H]2C[C@H](O)[C@@H](COP(=O)(O)OP(=O)(O)OP(=O)(O)O)O2)c(=O)n1 [DEOXYCYTIDINE TRIPHOSPHATE]
[2]
  K: 44 s⁻¹
[3]
  Kd: 1.1 µM
[4]
  Ratio: 40 µM⁻¹ s⁻¹

## CCC[C@@]1(CCc2ccccc2)CC(O)=C([C@@H](CC)c2cccc(NS(=O)(=O)c3ccc(C#N)cn3)c2)C(=O)O1
[5]
  Ki: 0.1 nM
[6]
  IC50: 490 nM
  IC90: 1000 nM

## O=C1Nc2ccc(Cl)cc2[C@@](C#CC2CC2)(C(F)(F)F)O1 [EFAVIRENZ]
[7]
  half-life: < 2.17 days
[1]
  IC90: 1.7 nM

## Cc1nc2ccccc2n1C1CCN(CC[C@H](NC(=O)C2CCC2)c2ccccc2)CC1
[8]
  IC50: 73 nM

## Cn1c(Cn2ccc(C(F)(F)F)c(Oc3cc(Cl)cc(C#N)c3)c2=O)n[nH]c1=O [DORAVIRINE]
[9]
  IC95: 0.043 µM
[10]
  IC95: 0.027 µM
[11]
  IC95: 0.055 µM

## Cc1nnc(C(C)C)n1C1CC2CCC(C1)N2CC[C@H](NC(=O)CCC(F)(F)F)c1ccccc1 (some centres not stated)
[8]
  IC90: 14 nM

## Cc1cn([C@H]2C[C@H](N=[N+]=[N-])[C@@H](CO)O2)c(=O)[nH]c1=O [ZIDOVUDINE]
[12]
  IC50: 55 nM

## CCC[C@]1(CCc2ccccc2)CC(O)=C([C@@H](CC)c2cccc(NS(=O)(=O)c3ccc(C#N)cn3)c2)C(=O)O1
[5]
  Ki: 0.12 nM
[6]
  IC50: > 1000 nM
  IC90: > 1000 nM

## Cc1nnc(C(C)C)n1C1CC2CCC(C1)N2CC[C@H](NC(=O)C1CCCC1)c1ccccc1 (some centres not stated)
[8]
  IC90: 1.6 nM

## Cc1nc2ccccc2n1C1C[C@H]2CC[C@@H](C1)N2CC[C@H](NC(=O)C1CCC1)c1ccccc1 (some centres not stated)
[8]
  IC90: 3 nM
[13]
  inhibition at 0.3 µM: 80%

## Nc1nc(=O)n(C2CSC(CO)O2)cc1F (racemic) [EMTRICITABINE, (+/-)-]
[14]
  IC50: 80 nM
[15]
  CC50 at 144 h: > 100 µM

## NS(=O)(=O)c1ccc(NC(=O)COc2cccc(Oc3ccccc3)c2)c(Cl)c1
[16]
  IC50: 52 nM

## Nc1nc(=O)n([C@H]2CS[C@@H](CO)O2)cc1F
[14]
  IC50: 1400 nM
[15]
  CC50 at 144 h: > 100 µM

## O=C1Nc2ccc(Cl)cc2[C@@](C#Cc2ccccn2)(C2CC2)N1
[17]
  IC50: 0.012 µM

## Nc1ccn([C@H]2CSC(CO)O2)c(=O)n1 (mixture of isomers)
[14]
  IC50: 70 nM
[18]
  CC50: 52.6 µM

## Cc1nc2ccccc2n1C1CCN(CC[C@@H](NC(=O)c2ccccc2)c2ccccc2)CC1
[19]
  IC50: 580 nM

## Cc1nnc(C(C)C)n1C1CC2CCC(C1)N2CC[C@H](NC(=O)C1CCOCC1)c1ccccc1 (some centres not stated)
[8]
  IC90: 125 nM
[13]
  inhibition at 0.3 µM: 0%

## CCC[C@]1(CCc2ccccc2)CC(O)=C([C@H](CC)c2cccc(NS(=O)(=O)c3ccc(C#N)cn3)c2)C(=O)O1
[5]
  Ki: 0.04 nM
[6]
  IC50: 110 nM
  IC90: 890 nM

## O=C1Nc2ccc(Cl)cc2[C@@](/C=C/C2CC2)(C(F)(F)F)N1
[1]
  IC90: 2.1 nM

## Cc1nc2cnccc2n1C1CCN(CCC(c2ccccc2)c2ccccc2)CC1
[20]
  IC50: 40 nM

## Nc1ccn([C@H]2CS[C@@H](CO)O2)c(=O)n1
[14]
  IC50: 100 nM
[18]
  CC50: 2.7 µM

## Cc1[nH]c2ccccc2c1CC(=O)N[C@@H](Cc1ccccc1)C(=O)N(C)c1ccccn1
[21]
  IC50: 800 nM

## Cc1nnc(C(C)C)n1[C@H]1C[C@H]2CC[C@@H](C1)N2CC[C@H](NC(=O)C1CCC(F)(F)CC1)c1ccccc1 [MARAVIROC]
[8]
  IC90: 1 nM

## CC(C)(C#Cc1ccc(-c2ccc(Cl)c3c(NS(=O)(=O)C4CC4)nn(CC(F)F)c23)c([C@H](Cc2cc(F)cc(F)c2)NC(=O)Cn2nc(C(F)(F)F)c3c2C(F)(F)[C@@H]2C[C@H]32)n1)S(C)(=O)=O
[22]
  IC50: 0.13 nM
[23]
  Kd: 2.4 nM
[24]
  half-life: 5.42 days

## Nc1nc(=O)n([C@@H]2CS[C@H](COP(=O)(O)OP(=O)(O)OP(=O)(O)O)O2)cc1F [EMTRICITABINE 5'-TRIPHOSPHATE]
[2]
  K: < 8.6 10^-3/s
[3]
  Kd: 63 µM
[4]
  Ratio: < 1.4 10^-4/µM/s

## Cc1nc2ccccc2n1C1CCN(CCC(NC(=O)c2ccccc2)c2ccccc2)CC1 (configuration not stated)
[19]
  IC50: 45 nM
[8]
  IC50: 210 nM

## O=c1[nH]cnc2c1ncn2[C@H]1CC[C@@H](CO)O1 [DIDANOSINE]
[12]
  IC50: 760 nM

## Cc1nnc(C(C)C)n1C1CC2CCC(C1)N2CC[C@H](NC(=O)C1CCC1)c1ccccc1 (some centres not stated)
[8]
  IC90: 8 nM

## Cc1[nH]c2ccccc2c1CC(=O)N[C@@H](Cc1ccccc1)C(=O)N(C)c1ccccc1
[21]
  IC50: 570 nM

## CN(C(=O)[C@@H](CCc1ccccc1)NC(=O)Cc1c[nH]c2ccccc12)c1ccccn1
[21]
  IC50: 4500 nM

## Nc1ccn([C@H]2CC[C@@H](CO)O2)c(=O)n1 [ZALCITABINE]
[12]
  IC50: 11 nM

## Cc1cc(C)c(-n2nnnc2SCC(=O)Nc2ccc(S(N)(=O)=O)cc2Cl)c(C)c1
[16]
  IC50: 4.1 nM

## Cc1nc2ccccc2n1C1CCN(CC[C@H](NC(=O)c2ccccc2)c2ccccc2)CC1
[19]
  IC50: 13 nM

## O=C(/C=C(\O)c1nc[nH]n1)c1ccc(Cc2ccc(F)cc2)o1 [S-1360]
[25]
  IC50: 20 nM

## C[C@@H]1CCO[C@H]2Cn3cc(C(=O)NCc4ccc(F)cc4F)c(=O)c(O)c3C(=O)N12 [DOLUTEGRAVIR]
[25]
  IC50: 2.7 nM

## O=C1Nc2ccc(Cl)cc2[C@](C#Cc2ccccn2)(C2CC2)N1
[17]
  IC50: 9.3 µM

## Nc1ccn([C@@H]2CS[C@H](COP(=O)(O)OP(=O)(O)OP(=O)(O)O)O2)c(=O)n1 [LAMIVUDINE TRIPHOSPHATE]
[2]
  K: 0.13 s⁻¹
[3]
  Kd: 13 µM
[4]
  Ratio: 0.01 µM⁻¹ s⁻¹

## CCC(c1ccccc1)c1c(O)c2ccccc2oc1=O (configuration not stated) [PHENPROCOUMON]
[26]
  IC50: 100 µM

## Nc1ccn([C@@H]2CS[C@H](CO)O2)c(=O)n1 [LAMIVUDINE]
[14]
  IC50: 70 nM
[18]
  CC50: > 100 µM

## Cc1nc2ccccc2n1C1CCN(CCC(c2ccccc2)c2ccccc2)CC1
[19]
  IC50: 4 nM
[20]
  IC50: 710 nM
